“Also recorded” adds a separate entry of the source. Read-outs that look alike come from different tables or passages of the source.
Key:
recombinant ERO1A [1] = biological target: T1, recombinant ERO1A (Mus musculus, UniProt Q8R180); design: method as in PMID 39962052; conditions: SAR of I1–I23, Fig. 8A; cited from earlier work
T1 construct: GST-SMT3-mouse ERO1A (residues 43–464); GST-SMT3 (GST-SUMO) (N, cleaved yes); made in house; host or cells: E. coli Rosetta DE3 (Novagen)
T1 sequence (Q8R180 43-464): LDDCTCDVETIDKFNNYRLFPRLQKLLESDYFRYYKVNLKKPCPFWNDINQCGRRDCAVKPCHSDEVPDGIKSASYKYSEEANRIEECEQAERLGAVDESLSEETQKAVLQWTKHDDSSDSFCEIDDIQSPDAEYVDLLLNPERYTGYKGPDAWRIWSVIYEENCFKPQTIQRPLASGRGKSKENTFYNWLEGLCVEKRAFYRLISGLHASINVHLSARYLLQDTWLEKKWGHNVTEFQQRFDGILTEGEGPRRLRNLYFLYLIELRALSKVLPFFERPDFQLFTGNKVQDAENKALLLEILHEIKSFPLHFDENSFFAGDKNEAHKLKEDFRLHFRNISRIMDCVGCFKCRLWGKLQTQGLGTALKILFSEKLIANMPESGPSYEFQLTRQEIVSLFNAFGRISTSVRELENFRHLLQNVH

recombinant ERO1A [2] = biological target: T1, recombinant ERO1A; experiment: AUR-based kinetic assay of ERO1A activity (recombinant ERO1A and PDIA1, HRP, Amplex Ultra Red); format: biochemical; conditions: for IC50: Table 1 in Fig. 3
Excerpt: A GST-SMT3-mouse ERO1A (residues 43–464) and His-tagged PDIA1 [30] were expressed in the Rosetta DE3 bacteria (Novagen) and purified as described in [29, 31]. The GST-SMT3 and His tags were cleaved using Ulp protease (Z03691, GenScript) and thrombin protease (T6884, Merck), respectively. Successful tag removal was confirmed by a shift to a lower molecular weight for ERO1A on SDS-PAGE and by the absence of signal in anti-His immunoblotting for PDIA1.
The kinetic assay of ERO1A activity is based on a reaction involving recombinant ERO1A and PDIA1 proteins, horseradish peroxidase (Worthington), and 5 μM Amplex Ultra Red, as detailed in [29]. The effect of ERO1A inhibitors was evaluated by preincubating the compounds with ERO1A and measuring the inhibition of the linear reaction rate, and the corresponding IC50 values were determined using Prism 10 (GraphPad).
EN460 and 16 newly synthesized derivatives (I24–I40) (except for I31, which was not evaluated due to potential toxicity associated with its CN group) were evaluated for their ability to inhibit ERO1-dependent AUR fluorescence using a kinetic assay with recombinant ERO1 and PDIA1, as previously described (Figs. 3A and 3B). Raw kinetic data showing AUR fluorescence over time in reactions containing reduced ERO1, PDIA1 and EN460-derivatives are presented in Fig. Sup.1 A and Sup. 1B. Reaction rates, measured in presence or absence of varying concentrations of each compound, were used to calculate IC50 values, defined as the concentration required to inhibit 50 % of ERO1 enzymatic activity (Figs. 3C, 3D and Fig. Sup1C).

[3] = biological target: T2, Human monoamine oxidase A (Mao-A) (Homo sapiens, UniProt P21397); experiment: Mao-A activity assay (commercial kit, p-tyramine, H2O2 fluorimetry); format: biochemical; conditions: 25 μM, 10 min incubation
T2 construct: purchased Sigma-Aldrich
T2 sequence (P21397 1-527): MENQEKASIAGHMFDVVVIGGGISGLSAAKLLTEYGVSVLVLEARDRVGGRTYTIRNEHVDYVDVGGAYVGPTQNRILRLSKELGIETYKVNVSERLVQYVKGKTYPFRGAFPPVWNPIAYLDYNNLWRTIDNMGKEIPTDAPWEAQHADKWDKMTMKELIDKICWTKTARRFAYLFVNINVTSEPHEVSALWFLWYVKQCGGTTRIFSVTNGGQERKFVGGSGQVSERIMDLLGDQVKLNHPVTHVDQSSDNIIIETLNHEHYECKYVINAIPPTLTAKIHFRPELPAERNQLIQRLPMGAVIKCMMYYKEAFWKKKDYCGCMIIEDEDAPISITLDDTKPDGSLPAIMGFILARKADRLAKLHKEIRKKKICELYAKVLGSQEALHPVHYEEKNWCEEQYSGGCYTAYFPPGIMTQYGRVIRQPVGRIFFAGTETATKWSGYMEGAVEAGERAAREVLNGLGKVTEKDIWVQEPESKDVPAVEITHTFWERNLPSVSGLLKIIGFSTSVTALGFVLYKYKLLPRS
Experimental: Mao-A activity was measured using a commercial assay kit according to the manufacturer’s instructions. Mao-A (0.837 μM) was incubated with vehicle (1 % DMSO), Clorgyline (50 μM), or various concentrations (1, 5, or 25 μM) of EN460, I2, I26, or I29 for 10 min. Mao-A catalyzes the oxidative deamination of p-tyramine, generating H2O2, which was quantified fluorimetrically (λex= 530; λem= 585 nm). Mao-A activity is presented as a percentage of the vehicle control.

recombinant PDI = recombinant PDI (Homo sapiens, UniProt P07237); experiment: PDI activity assay (insulin transhydrogenase / insulin turbidity assay); format: biochemical; conditions: 25 μM, 15 min incubation
Sequence of recombinant PDI (P07237 18-508, species assumed): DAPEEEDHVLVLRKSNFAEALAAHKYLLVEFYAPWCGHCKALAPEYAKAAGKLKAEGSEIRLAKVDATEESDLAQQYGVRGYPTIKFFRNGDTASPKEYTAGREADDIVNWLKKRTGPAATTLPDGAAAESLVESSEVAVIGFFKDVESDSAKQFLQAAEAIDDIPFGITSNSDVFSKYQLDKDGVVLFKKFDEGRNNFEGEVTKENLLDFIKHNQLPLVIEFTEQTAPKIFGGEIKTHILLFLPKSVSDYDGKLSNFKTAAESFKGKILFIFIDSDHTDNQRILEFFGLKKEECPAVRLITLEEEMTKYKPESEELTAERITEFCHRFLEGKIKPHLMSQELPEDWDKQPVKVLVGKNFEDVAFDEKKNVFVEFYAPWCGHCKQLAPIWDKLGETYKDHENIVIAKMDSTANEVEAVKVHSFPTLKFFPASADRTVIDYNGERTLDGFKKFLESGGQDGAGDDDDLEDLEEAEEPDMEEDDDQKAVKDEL
Experimental: PDI activity was assessed using an insulin transhydrogenase assay. Bovine insulin (1 mg/mL) in sodium phosphate buffer, pH 7.0, containing 2 mM EDTA, was incubated with 1.4 μM recombinant PDI in the presence of vehicle (1 % DMSO) or various concentrations of isoquercetin (30 or 60 μM), EN460, I2, I26, or I29 (1, 5, or 25 μM) for 15 min. The turbidimetric assay of insulin disulfide reduction by PDI was initiated by adding 1 mM dithiothreitol, and the reaction was monitored at 650 nm for 80 min. PDI activity is presented as a percentage of the vehicle control.

MDAMB231 cells = experiment: MTS assay of metabolic activity in MDAMB231 cells; format: cell-based, human; conditions: MDAMB231, dose-response, 24 h, 1 % FBS
Experimental: Six thousand cells (MDAMB231 and E0771) per well were seeded in 96-well plates and cultured in medium containing 1 % FBS. Cells were treated with varying concentrations of compounds and, after 24 h, incubated with MTS [3-(4,5-dimethylthiazol-2-yl)-5-(3-carboxymethoxyphenyl)-2-(4 sulfophenyl)2Htetrazolium]and PMS (phenazine methosulfate), following the instructions of the CellTiter 96® Aqueous Non-Radioactive Cell Proliferation Assay (Promega). Measurements were performed using a TECAN Infinite M200 plate reader with […] at 490 nm.

[4] = biological target: T3, ERO1 in MDA-MB-231 breast cancer cells (Homo sapiens, UniProt Q96HE7); experiment: ERO1 redox state by non-reducing immunoblot in MDA-MB-231 cells; format: cell-based; conditions: MDA-MB-231, 1–100 μM, in physiological solution or dissolved in DMSO, Fig. 4B
T3 construct: Non-reducing Immunoblot of endogenous ERO1 in lysates of vehicle-treated MDAMB231; endogenous in cells; host or cells: MDA-MB-231
T3 sequence (Q96HE7 24-468): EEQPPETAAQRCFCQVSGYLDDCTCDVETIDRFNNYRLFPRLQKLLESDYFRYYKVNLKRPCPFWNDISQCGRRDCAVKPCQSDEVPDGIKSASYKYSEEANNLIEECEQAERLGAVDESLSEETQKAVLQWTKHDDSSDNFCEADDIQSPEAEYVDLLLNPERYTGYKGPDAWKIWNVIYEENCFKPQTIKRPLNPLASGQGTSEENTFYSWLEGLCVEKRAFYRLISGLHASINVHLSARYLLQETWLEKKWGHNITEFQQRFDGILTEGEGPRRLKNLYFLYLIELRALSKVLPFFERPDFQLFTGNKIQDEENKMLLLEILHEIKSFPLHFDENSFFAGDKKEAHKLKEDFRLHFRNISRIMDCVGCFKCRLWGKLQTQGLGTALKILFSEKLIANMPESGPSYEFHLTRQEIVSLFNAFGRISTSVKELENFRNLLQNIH
Experimental: MDAMB231 and E0771 cells were maintained in Dulbecco’s Modified Eagle’s Medium supplemented with 1 % fetal bovine serum and seeded at 70 % confluency in six-well plates one day prior to the experiment. Cells were treated with DTT (10 mM) and/or ERO1A inhibitors for 1–5 h. At the time of collection, phosphate-buffered saline containing 10 mM NEM was added, and cells were incubated on ice for 10 min in lysis buffer (50 mM Tris-HCl, pH 7.4; 150 mM NaCl; 1 % Triton X-100; 0.1 % SDS; 1 % sodium deoxycholate; protease inhibitors; and 10 mM NEM). Protein concentrations were determined using the BCA assay, and equal amounts of protein were separated by non-reducing SDS-PAGE followed by immunoblotting with a polyclonal antibody against ERO1A [33].

[5] = logarithm of IC50 in μM, compounds dissolved in DMSO, read-out: Log IC50 (confidence intervals) (converted)
[6] = compounds dissolved in DMSO, preincubated with ERO1A, NA stands for not active, read-out: IC50

Row | Structure (SMILES) | IC50 (recombinant ERO1A [2]; [5]) [µM] | ERO1 inhibitory activity (in words) (recombinant ERO1A [2]; compounds dissolved in DMSO) | IC50 (recombinant ERO1A [2]; [6]) [µM] | other results
1 | O=C1/C(=C/c2ccc(-c3ccccc3)o2)C(C(F)(F)F)=NN1c1ccc(Cl)cc1 [I1] | – | – | – | ERO1 inhibitory activity (in words) (recombinant ERO1A [1]): inactive
2 | O=C(O)c1cccc(N2N=C(C(F)(F)F)/C(=C\c3ccc(-c4ccccc4)o3)C2=O)c1 [I3] | – | – | – | ERO1 inhibitory activity (in words) (recombinant ERO1A [1]): retained activity; IC50 (recombinant ERO1A [1]): 3.5 µM
3 | COC(=O)c1cc(N2N=C(C(F)(F)F)/C(=C\c3ccc(-c4ccccc4)o3)C2=O)ccc1Cl [I6] | – | – | – | ERO1 inhibitory activity (in words) (recombinant ERO1A [1]): Inactive
4 | O=C(O)c1cc(N2N=C(c3ccccc3)/C(=C\c3ccc(-c4ccccc4)o3)C2=O)ccc1Cl [I10] | – | – | – | ERO1 inhibitory activity (in words) (recombinant ERO1A [1]): abolished the activity
5 | CC1=NN(c2ccc(Cl)c(C(=O)O)c2)C(=O)/C1=C/c1ccc(-c2ccccc2)o1 [I14] | – | – | – | ERO1 inhibitory activity (in words) (recombinant ERO1A [1]): abolished the activity
6 | O=C1/C(=C/c2ccc(-c3ccccc3)o2)C(C(F)(F)F)=NN1c1cccc2ccccc12 [I24] | 8.51 | – | – | –
7 | Cc1ccccc1N1N=C(C(F)(F)F)/C(=C\c2ccc(-c3ccccc3)o2)C1=O [I25] | 17.8 | lowest potency | 17.7 | –
8 | Cc1cccc(C)c1N1N=C(C(F)(F)F)/C(=C\c2ccc(-c3ccccc3)o2)C1=O [I26] | 6.46 | – | – | Mao-A activity (percentage of the vehicle control) [3]: inhibited Mao-A activity; PDI activity (percentage of the vehicle control) (recombinant PDI): inhibited PDI activity
9 | COc1ccccc1N1N=C(C(F)(F)F)/C(=C\c2ccc(-c3ccccc3)o2)C1=O [I27] | 8.51 | – | – | –
10 | O=C1/C(=C/c2ccc(-c3ccccc3)o2)C(C(F)(F)F)=NN1c1ccccc1Cl [I28] | 4.79 | – | – | –
11 | O=C1/C(=C/c2ccc(-c3ccccc3)o2)C(C(F)(F)F)=NN1c1cc(F)ccc1F [I30] | 10.7 | – | 10.7 | –
12 | O=C1/C(=C/c2ccc(-c3ccccc3)o2)C(C(F)(F)F)=NN1c1cccnc1 [I32] | 19.1 | – | 19.1 | –
13 | O=C1/C(=C/c2ccc(-c3ccccc3)o2)C(C(F)(F)F)=NN1c1cccc(S(=O)(=O)O)c1 [I34] | – | retained activity | 5.6 | metabolic activity (MTS assay) (MDAMB231 cells): inactive; IC50 / potency relative to EN460 (recombinant ERO1A [2]; compared with EN460): comparable to EN460; ERO1 inhibitory activity (in words) (recombinant ERO1A [2]; compound in aqueous solution (physiological solution)): completely inactive; ERO1 reduction / activity in cells [4]: failed to reduce ERO1A; also recorded: completely inactive in cells; ERO1 reduction / activity in cells ([4]; listed as I34(DMSO)): inactive in cells
14 | O=C(O)c1cc(N2N=C(C(F)(F)F)/C(=C\c3ccc(-c4cccc(F)c4)o3)C2=O)ccc1Cl [I36] | – | did not significantly affect inhibitory activity compared to EN460; also recorded: maintained the potency | – | –
15 | O=C(O)c1cc(N2N=C(C(F)(F)F)/C(=C\c3ccc(-c4cccc(C(F)(F)F)c4)o3)C2=O)ccc1Cl [I37] | 5.62 | did not significantly affect inhibitory activity compared to EN460; also recorded: maintained the potency | – | –
16 | O=C(O)c1cc(N2N=C(C(F)(F)F)/C(=C\c3ccc(-c4ccc(F)cc4)o3)C2=O)ccc1Cl [I38] | – | loss of activity | – | –
17 | COc1cccc(-c2ccc(/C=C3/C(=O)N(c4ccc(Cl)c(C(=O)O)c4)N=C3C(F)(F)F)o2)c1 [I39] | – | loss of activity | 10.5 | –
18 | O=C(O)c1cc(N2N=C(C(F)(F)F)/C(=C\c3ccc(-c4ccccc4)s3)C2=O)ccc1Cl [I40] | – | reduced activity | 12 | –

— publication PMC13198932, “Pyrazolone-based ERO1 inhibitors in ERO1-driven triple-negative breast cancer and SEPN1-related myopathy: Structure–activity relationship and therapeutic potential” (Pharmacological research, 2025)
